The source of these data is patent publication US4613355A, “Antibiotic having herbicidal activity” (Satoshi Omura, priority 1983, dated 1986).

The subject of one series is Rumex obtusifolius. Briefly: Foliage treatment with different salts (Example 11). It counts as in vivo. Further details: key: 0 indicates no effect; 5 indicates complete kill. To be noted: Rumex obtusifolius (Plant No. 14), 1000 liter per hectare. As to the method:
Aqueous solutions containing different salts of Phosalacine at different concentrations as active ingredients and 0.1% of octylphenylpolyoxy ethanol as surfactant were applied at a rate of 1000 liter per hectare to Rumex obtusifolius (Plant No. 14) at a certain stage of growth. 21 days after foliage treatment, damage to the plant was visually assessed on a scale of 0 to 5 as hereinbefore described. The salts used were prepared by the methods described in the reference mentioned above.

In the next series the test system is Digitaria adscendens. In words: Foliage treatment of seedlings in pots (Example 7). Format: in vivo. The conditions noted are these: 10 days after foliage treatment, 1000 liter per hectare. The procedure: Upland soil was put in a pot of 10 cm diameter and the seeds of Digitaria adscendens were sown in the soil at a depth of 1 cm from the surface. When the height of the seedlings was about 10 cm, aqueous solutions of the test compounds as shown in the following Table were uniformly sprayed on the plants at a rate of 1.2 ml per plant, equivalent to 1000 liter per hectare. 10 days after the foliage treatment, damage to plants was visually assessed on a scale of from 0 to 10, where 0 indicates no effect and 10 indicates complete kill.

Another series relates to Killifishes (Medaka). In words: Acute toxicity to fish, survival ratio (Example 13). Format: in vivo. To be noted: for Survival ratio (%): killifish, 100 ppm. The procedure: Killifishes (Japanese name, Medaka), were obtained from a market and maintained in a water bath at 25±2° C. for a week. Then the fishes (each group consisting of 10 fishes) were placed in water baths containing the test compounds at given concentrations as shown in the following Table. 24 and 48 hours after this, the survival ratio (%) of each group was visually counted to assess the acute toxity.

The next series has as its system various plants. Briefly: Inhibition of regrowth one month after foliage treatment (Example 8). It counts as in vivo. To be noted: visually assessed, compared with SF-1293. The procedure:
Aqueous solutions of Phosalacine (Na salt) at different concentrations were applied at a rate of 1500 liters per hectare to naturally occurring plants or plants which were cultured on plates as shown in the following Table at certain stages of growth. The Phosalacine applied contained 0.1% of octylphenylpolyoxy ethanol as surfactant. 7 and 14 days after the foliage treatment, damage to the plants was visually assessed on a scale of from 0 to 5 where 0 indicates no effect and 5 indicates complete kill. […] One month after the foliage treatment, the inhibition of regrowth of the plants was visually investigated.
One month after the foliage treatment, the inhibition of regrowth of the plants was visually assessed.

The subject of the next series is Bacillus subtilis KB211. Briefly: MIC by agar dilution method. Format: cell-based. (In agar dilution the substance is mixed into plates at graded concentrations.)
Another series concerns Micrococcus luteus KB212. In words: MIC by agar dilution method. Format: cell-based. To be noted: medium A Davis's minimal medium (pH 7.0).
The subject of the next series is Aspergillus niger KF105. In words: MIC by agar dilution method. It counts as cell-based. The conditions noted are these: medium B Dextrose Czapek' medium.
In a further series the test system is Piricularia oryzae KF180. Format: cell-based. The conditions noted are these: medium B Dextrose Czapek' medium.
Series [1] deals with Klebsiella pneumoniae KB214. Briefly: MIC by agar dilution method. Format: cell-based. The conditions noted are these: medium A Davis's minimal medium (pH 7.0).
Another series relates to Mucor racemosus KF223. Briefly: MIC by agar dilution method. Format: cell-based. To be noted: medium B Dextrose Czapek' medium.
For a further series, the system named is Escherichia coli KB213. In words: MIC by agar dilution method. The conditions noted are these: medium A Davis's minimal medium (pH 7.0). Format: cell-based. The source says: The minimum inhibitory concentrations (MIC values) of Phosalacine were investigated in conventional manner by the agar dilution method and the results are indicated in the following Table, from which it is apparent that Phosalacine is active against various Gram-positive and Gram-negative bacteria and fungi.
[Notes: A . . . Davis's minimal medium (pH 7.0), B . . . Dextrose Czapek'

The subject of series [2] is Staphylococcus aureus KB210. In words: MIC by agar dilution method. Format: cell-based. The conditions noted are these: medium A Davis's minimal medium (pH 7.0).
In a further series the test system is Bacillus cereus KB143. In words: MIC by agar dilution method. Format: cell-based. The conditions noted are these: medium A Davis's minimal medium (pH 7.0).
The next series relates to Proteus vulgaris KB127. In words: MIC by agar dilution method. The conditions noted are these: medium A Davis's minimal medium (pH 7.0). Format: cell-based.
The nature of series [3]: Physico-chemical characteristics: acid/base nature. It counts as physicochemical.
The nature of series [4]: Acute toxicity in mice per os, body weight (Example 14). The conditions noted are these: for Body weight: 500 mg/kg per os. It counts as in vivo, Mice ICR (RJ) strain. As to the method:
Mice [ICR (RJ) strain; female; 6 weeks after birth; each group consisting of 10 mice] were used as test animals to investigate the acute toxity of Phosalacine in mice. A 1% aqueous solution (free acid) was forcibly administered per os to each animal and the body weight of each animal was measured 7 and 14 days after administration. Separately, a similar test was effected by administering Phosalacine (free acid) at a dose of 100 mg/kg.

Another series deals with Escherichia coli KB176. In words: MIC by agar dilution method. Format: cell-based. To be noted: medium A Davis's minimal medium (pH 7.0).
Another series relates to Candida albicans KFl. In words: MIC by agar dilution method. Format: cell-based. The conditions noted are these: medium B Dextrose Czapek' medium.
In series [5] the test system is Staphylococcus aureus KB199. Briefly: MIC by agar dilution method. It counts as cell-based. To be noted: medium A Davis's minimal medium (pH 7.0).
For another series, the system named is Cryptomeria japonica. In words: Foliage treatment of woody plants (Example 10). To be noted: in vivo. Format: in vivo. The text has this:
(§1) Aqueous solutions containing Phosalacine (Na salt) at different concentrations and 0.1% of octylphenylpolyoxy ethanol as surfactant were applied at a rate of 1500 liter per hectare to woody plants of about 60-70 cm in height. 7 and 14 days after the foliage treatment, damage to the plants was visually assessed on a scale of from 0 to 5 (cf. Example 7).

The test system of the next series is Chamaecyparis obtusa. Briefly: Foliage treatment of woody plants (Example 10). Format: in vivo. To be noted: even when applied at a concentration of 0.5%.
Excerpt: as §1

Another series relates to Erwinia aroideae KB148. Briefly: MIC by agar dilution method. It counts as cell-based. To be noted: medium A Davis's minimal medium (pH 7.0).

Converted amounts (≈) assume the structure as drawn.

Turning to `CC(C)CC(NC(=O)C(C)NC(=O)C(N)CCP(C)(=O)O)C(=O)O.CCCCN` (centres unmarked) [Mono n-butylamine salt], the “Damage to plants after 21 days, scale 0 to 5” value (from here on “Damage to plants after 21 days”) with Rumex obtusifolius (0.05%) amounted to 3; with Rumex obtusifolius (0.1%), 5.

As for `CC(C)CC(NC(=O)C(C)NC(=O)C(N)CCP(C)(=O)O)C(=O)O.CC(C)N` (centres unmarked) [Mono isopropylamine salt], the “Damage to plants after 21 days” value is 3 in the series on Rumex obtusifolius (0.05%) and 5 with Rumex obtusifolius (0.1%).

Regarding `CC(C)C[C@H](NC(=O)[C@H](C)NC(=O)[C@@H](N)CCP(C)(=O)O)C(=O)O.CCNCC` [monodiethylamine salt], the results for the “damage to plants, scale 0 to 10” value in the series with Digitaria adscendens (Concentration 0.01 ppm), with Digitaria adscendens (Concentration 0.03 ppm) and in the series with Digitaria adscendens (Concentration 0.1 ppm) were 5 (50), 10 (100) and 10 (100), respectively.

`CC(C)CC(NC(=O)C(C)NC(=O)C(N)CCP(C)(=O)[O-])C(=O)[O-].[K+].[K+]` (centres unmarked) [Di Ka salt]: the “Damage to plants after 21 days” value turned out to be 3 in the series on Rumex obtusifolius (0.05%) and 5 with Rumex obtusifolius (0.1%).

For `CPCC[C@H](N)C(=O)O` (stereo partly drawn) [L-2-amino-4-methylphosphino butyric acid, reference compound], the “Survival ratio (%)” value in the series with Killifishes (Medaka) (24 hours) and in the series with Killifishes (Medaka) (48 hours) was 0% each time.

As for `CC(C)CC(NC(=O)C(C)NC(=O)C(N)CCP(C)(=O)[O-])C(=O)[O-].[Na+].[Na+]` (centres unmarked) [Di Na salt], the “Damage to plants after 21 days” value in the series with Rumex obtusifolius (0.05%) was 3; in the series with Rumex obtusifolius (0.1%), 5.

Consider `CC(C)C[C@H](NC(=O)[C@H](C)NC(=O)[C@@H](N)CCP(C)(=O)O)C(=O)O` [Phosalacine, phosphinothricyl-alanyl leucine], for which the “inhibition of regrowth of the plants” value with various plants is given as “equal or superior to that of SF-1293”. Besides, the MIC (in general, the least concentration at which growth counts as inhibited) was 0.4 µg/mL (≈ 1.09 µM) against Bacillus subtilis KB211 (Bacillus subtilis KB211, medium A Davis's minimal medium (pH 7.0)); 6.25 µg/mL (≈ 17.1 µM) in the series on Micrococcus luteus KB212; above 100 µg/mL against Aspergillus niger KF105; 0.1 µg/mL (≈ 0.274 µM) with Piricularia oryzae KF180; 25 µg/mL (≈ 68.4 µM) in series [1]; 6.25 µg/mL (≈ 17.1 µM) in the series on Mucor racemosus KF223. Moreover, the MIC with Escherichia coli KB213 was 12.5 µg/mL (≈ 34.2 µM); in series [2], 0.4 µg/mL (≈ 1.09 µM); in the series with Bacillus cereus KB143, 0.4 µg/mL (≈ 1.09 µM); against Proteus vulgaris KB127 it was 25 µg/mL (≈ 68.4 µM); against Escherichia coli KB176 it was 25 µg/mL (≈ 68.4 µM); in the series on Candida albicans KFl it was above 100 µg/mL. The results for the minimal inhibitory concentration (MIC) (in [5]; against Erwinia aroideae KB148) were 0.2 µg/mL (≈ 0.547 µM) and below 0.05 µg/mL, respectively. For the same molecule, the “Effect of glutamine on activity against Bacillus subtilis” value in the series with Bacillus subtilis KB211 (synthetic media) was “competitively antagonised by glutamine”. Further, the “acute toxity against fish, comparison” value in the series with Killifishes (Medaka) (fish) was “less than that of glyphosate and SF-1293”. For the same molecule, the Acid/base nature result in series [3] is “Amphoteric”. In addition, the “Body weight” value in series [4] (After 0 days) is 23.9 g; in series [4] (After 7 days), 24.5 g; in series [4] (After 14 days), 26.2 g. Moreover, the “change of body weight” value in series [4] (dose of 100 mg/kg) was “No significant change of body weight”. Besides, in [4] (per os), the “acute toxity to mice” value is on record as “very low”. In the series on Cryptomeria japonica, the “herbicidal activity against Cryptomeria japonica” value is “relatively low herbicidal activity”. Moreover, the “herbicidal activity against Chamaecyparis obtusa” value in the series on Chamaecyparis obtusa is reported as “not herbicidally active”.
